Laboratory results published in patent US20110281896A1, “OPTICALLY PURE QUINAZOLINE COMPOUNDS” (Jiangsu Hansoh Pharmaceutical Co. Ltd, priority 2009, published 2011).

What was measured:
A431 = assay: Antitumor activity in vitro, SRB cell proliferation inhibition; assay type: cell-based; settings: 72 h incubation, Logit method
Description: (§1) Evaluation of Antitumor Activity In Vitro
(§2) Cell Strains: A431; MCF-7
(§3) Experiment Design: Cells were incubated with different concentrations of compounds for 72 hours. The inhibition of cell proliferation by the compounds was evaluated by SRB, followed by calculation of the inhibition rate. Then, value of IC50 was calculated by using-Logit method base on the inhibition rate and used to compare in vitro antitumor activity of the compounds.
(§4) Method for Calculating the Inhibition Rate: Inhibition rate (%)=(OD value of control group−OD value of drug group)/OD value of control group×100%

MCF-7 = assay: as above; assay type: cell-based; settings: 72 h incubation, Logit method
Description: as §1, §2, §3, §4

[1] = system: human lung cancer Calu-3 xenografts; assay: Effect on xenografts in nude mice with lung cancer Calu-3; assay type: in vivo, BALB/cA-nude mice; settings: for Initial Tumor Volume (mm^3) D0: D0 = time of first administration (baseline); for Initial Tumor Volume (mm^3) D0 / Final Tumor Inhibition Rate (%) D16 / % T/C D16 / Relative Tumor Volume D16 / Final Tumor Volume (mm^3) D16 / The Recession/Group / inhibition of growth of human lung cancer Calu-3 (in words): PO QD × 17; for Initial Tumor Volume (mm^3) D0 / Final Tumor Inhibition Rate (%) D16 / % T/C D16 / Relative Tumor Volume D16 / Final Tumor Volume (mm^3) D16 / The Recession/Group: 146.5-146.7 mg/kg; for Initial Tumor Volume (mm^3) D0 / Relative Tumor Volume D16 / Final Tumor Volume (mm^3) D16: mean; for % T/C D16: C = mean tumor volume of drug, control group; for Final Tumor Volume (mm^3) D16: D16 = 17th day after administration; for The Recession/Group: number of mice per group of 6
Description: Effect of compound 97(±), compound 97, compound 110 and Lapatinib (positive control) on xenografts in nude mice with lung cancer Calu-3 Remark: “±” means the compound is racemic.
The purpose of the experiment is to evaluate and compare the effect of compound 97(±), compound 97, compound 110, Lapatinib on xenografts in nude mice with lung cancer Calu-3.
BALB/cA-nude mice, 6-7 weeks, ♀, purchased from ShangHai Slac laboratory animal Co., Ltd.
Calu-3 cells were injected subcutaneously into nude mice. Animals were divided into groups (d0) randomly after tumors have grown to 150-300 mm^3. Dosage and dosage regimen design can be seen in table 1. Tumors volume was measured 2-3 times per week. Mice were weighed and data were recorded. Calculation formula for tumor volume (V) is as below:
V=½×a×b^2, wherein, a and b represent length and width respectively.

[2] = Homo sapiens, A-431, A431 cells
[3] = Homo sapiens, MCF7, MCF-7 cells
[4] = xenografts in nude mice, PO QD × 17, 146.7 mg/kg

Structure (SMILES) | IC50 (A431; [2]) [µM] | IC50 (MCF-7; [3]) [µM] | Initial Tumor Volume (mm^3) D0 [1] [mm^3] | Final Tumor Inhibition Rate (%) D16 [1] [%] | % T/C D16 [1] [%] | Relative Tumor Volume D16 [1] | Final Tumor Volume (mm^3) D16 [1] [mm^3] | The Recession/Group [1] | inhibition of growth of human lung cancer Calu-3 (in words) ([1]; xenografts in nude mice) | IC50 (A431; A431 cells) [µM] | IC50 (MCF-7; MCF-7 cells) [µM] | fraction of the tumors in mice caused to shrink [1, 4] | number of mice with tumor shrinking more than 50% in volume [1, 4]
CN(C)[C@H](CS(C)(=O)=O)c1ccc(-c2ccc3ncnc(Nc4ccc(OCc5cccc(F)c5)c(Cl)c4)c3c2)o1 [Compound 97, (S)—N-(4-(3-fluorobenzyloxy)-3-chlorophenyl)-6-(5-(1-(N,N-dimethyl-amino)-2-(methylsulfonyl)ethyl)furan-2-yl)quinazolin-4-amine] | 0.734 | 6.67 | 291.2 | 44 | 56 | 1.9 | 525.4 | 0 | inhibited the growth of human lung cancer Calu-3 significantly |  |  |  | 
CN(C)[C@@H](CS(C)(=O)=O)c1ccc(-c2ccc3ncnc(Nc4ccc(OCc5cccc(F)c5)c(Cl)c4)c3c2)o1 [Compound 110, (R)—N-(4-(3-fluorobenzyl-oxy)-3-chlorophenyl)-6-(5-(1-(N,N-dimethyl-amino)-2-(methylsulfonyl)ethyl)-2-yl)quinazolin-4-amine] |  |  | 249.1 | 77 | 23 | 0.8 | 187.4 | 1 | inhibited the growth of human lung cancer Calu-3 significantly | 0.768 | 5.67 | ⅚ | one
CON(C)[C@H](CS(C)(=O)=O)c1ccc(-c2ccc3ncnc(Nc4ccc5c(cnn5Cc5cccc(F)c5)c4)c3c2)o1 [Compound 156] |  |  |  |  |  |  |  |  |  | 0.428 | 5.52 |  | 
CS(=O)(=O)CCNCc1ccc(-c2ccc3ncnc(Nc4ccc(OCc5cccc(F)c5)c(Cl)c4)c3c2)o1 [Lapatinib, reference compound] | 0.643 | 8.47 | 262.3 | 42 | 58 | 2.0 | 526.5 | 0 | inhibited the growth of human lung cancer Calu-3 significantly |  |  |  | 
